14 compounds from patent publication US12091425B2 (AMGEN INC., priority 2016, dated 2024) can be followed below.

Molecules are shown by their SMILES.

T1 sequence (Q07820 171-327): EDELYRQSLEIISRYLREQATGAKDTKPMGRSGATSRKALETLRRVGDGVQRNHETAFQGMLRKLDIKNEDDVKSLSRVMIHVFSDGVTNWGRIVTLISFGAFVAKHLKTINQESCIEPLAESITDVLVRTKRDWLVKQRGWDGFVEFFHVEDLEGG

One test has as its target T1, Mcl-1/Bim interaction, recombinant human Mcl-1 (171-327) (Homo sapiens, UniProt Q07820).
T1 construct: made in house
The experiment in a line: Cell free Mcl-1: Bim Affinity Assay (Mcl-1 HTRF). Type of test: binding. The settings on record: TR-FRET, 0.1 nM Mcl-1 (171-327), 0.05 nM biotin-Bim (51-76). In a few lines:
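Compounds were mixed with the protein and a biotinylated Bim peptide spanning human residues 51-76. Plates were left overnight, then TR-FRET signal was measured. A four-parameter sigmoidal model applied to duplicate competition data gave IC50.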
By IC50 is commonly meant the concentration needed to halve the response being measured. Turning to `O=C1NS(=O)(=O)CCC[C@H](O)[C@@H]2CC[C@H]2CN2C[C@@]3(CCCc4cc(Cl)ccc43)COc3ccc1cc32` [Example 342, (1S,3′R,6′R,7′S)-6-chloro-7′-hydroxy-3,4-dihydro-2H,13′H-spiro[naphthalene-1,20′-[18]oxa[11]thia[1,12]diazatetracyclo[12.7.2.0^3,6.0^17,22]tricosa[14,16,22]trien]-13′-one 11′,11′-dioxide], the IC50 came to 5 nM.

In the case of `CC[C@@H]1CCCC[C@@H](NC(=O)C(C)C)[C@@H]2CC[C@H]2CN2C[C@@]3(CCCc4cc(Cl)ccc43)COc3ccc(cc32)C(=O)NS1(=O)=O` [Example 1083], the IC50 amounted to 2.19 nM.

On to `O=C1NS(=O)(=O)C/C=C/[C@H](O)[C@@H]2CC[C@H]2CN2C[C@@]3(CCCc4cc(Cl)ccc43)COc3ccc1cc32` [Example 341, (1S,3′R,6′R,7′S,8′E)-6-chloro-7′-hydroxy-3,4-dihydro-2H,13′H-spiro[naphthalene-1,20′-[18]oxa[11]thia[1,12]diazatetracyclo[12.7.2.0^3,6.0^17,22]tricosa[8,14,16,22]tetraen]-13′-one 11′,11′-dioxide], for which the IC50 was 7.07 nM.

Consider `CC(=O)N1C/C=C/CS(=O)(=O)NC(=O)c2ccc3c(c2)N(C[C@@H]2CC[C@H]2C1)C[C@@]1(CCCc2cc(Cl)ccc21)CO3.CC(=O)N1C/C=C\CS(=O)(=O)NC(=O)c2ccc3c(c2)N(C[C@@H]2CC[C@H]2C1)C[C@@]1(CCCc2cc(Cl)ccc21)CO3` (mixture of isomers) [Example 371, (1S,3′R,6′R,10′E)-8′-acetyl-6-chloro-3,4-dihydro-2H,15′H-spiro[naphthalene-1,22′-[20]oxa[13]thia[1,8,14]triazatetracyclo[14.7.2.0^3,6.0^19,24]pentacosa[10,16,18,24]tetraen]-15′-one 13′,13′-dioxide and (1S,3′R,6′R,10′Z)-8′-acetyl-6-chloro-3,4-dihydro-2H,15′H-spiro[naphthalene-1,22′-[20]oxa[13]thia[1,8,14]triazatetracyclo[14.7.2.0^3,6.0^19,24]pentacosa[10,16,18,24]tetraen]-15′-one 13′,13′-dioxide], for which the IC50 was 20.8 nM.

In the case of `COCC[C@@H]1CC/C=C/[C@H](O)[C@@H]2CC[C@H]2CN2C[C@@]3(CCCc4cc(Cl)ccc43)COc3ccc(cc32)C(=O)NS1(=O)=O` (single isomer, unassigned) [Example 442], the IC50 amounted to 0.292 nM.

Consider `CC[C@@H]1CC/C=C/[C@@H](NC(=O)C(C)C)[C@@H]2CC[C@H]2CN2C[C@@]3(CCCc4cc(Cl)ccc43)COc3ccc(cc32)C(=O)NS1(=O)=O` [Example 1081], for which the IC50 turned out to be 0.947 nM.

The test is the same for the next values; noted with them: cell free Mcl-1:Bim TR-FRET, recombinant human Mcl-1 (171-327).
As for `COC[C@@]1(C)C/C=C/[C@H](O)[C@@H]2CC[C@H]2CN2C[C@@]3(CCCc4cc(Cl)ccc43)COc3ccc(cc32)C(=O)NS1(=O)=O` (single isomer, unassigned) [Example 774], the IC50 is 1.72 nM.

On to `CC1COCCC(O)C2CCC2CN2CC3(CCCc4cc(Cl)ccc43)COc3ccc(cc32)C(=O)NS1(=O)=O` (single isomer, unassigned) [Example 861], for which the IC50 amounted to 1.59 nM.

Turning to `CC1(C)C/C=C/[C@H](O)[C@@H]2CC[C@H]2CN2C[C@@]3(CCCc4cc(Cl)ccc43)COc3ccc(cc32)C(=O)NS1(=O)=O` [Example 769, (1S,3′R,6′R,7′S,8′E)-6-chloro-7′-hydroxy-11′,11′-dimethyl-3,4-dihydro-2H,14′H-spiro[naphthalene-1,21′-[19]oxa[12]thia[1,13]diazatetracyclo[13.7.2.0^3,6.0^18,23]tetracosa[8,15,17,23]tetraen]-14′-one 12′,12′-dioxide], the IC50 was found to be 0.971 nM.

As for `O=C1NS(=O)(=O)CCCC[C@H](O)C[C@@H]2CC[C@H]2CN2C[C@@]3(CCCc4cc(Cl)ccc43)COc3ccc1cc32` (single isomer, unassigned) [Example 867, (1S,3′R,6′S,8′S)-6-chloro-8′-hydroxy-3,4-dihydro-2H,15′H-spiro[naphthalene-1,22′-[20]oxa[13]thia[1,14]diazatetracyclo[14.7.2.0^3,6.0^19,24]pentacosa[16,18,24]trien]-15′-one 13′,13′-dioxide or (1S,3′R,6′S,8′R)-6-chloro-8′-hydroxy-3,4-dihydro-2H,15′H-spiro[naphthalene-1,22′-[20]oxa[13]thia[1,14]diazatetracyclo[14.7.2.0^3,6.0^19,24]pentacosa[16,18,24]trien]-15′-one 13′,13′-dioxide], the IC50 is 6.81 nM.

`CC[C@@H]1CCCC[C@H](O)[C@@H]2CC[C@H]2CN2C[C@@]3(CCc4cc(Cl)ccc43)COc3ccc(cc32)C(=O)NS1(=O)=O` (single isomer, unassigned) [Example 695, (1S,3′R,6′R,7′S,12′R)-5-chloro-12′-ethyl-7′-hydroxy-2,3-dihydro-15′H-spiro[indene-1,22′-[20]oxa[13]thia[1,14]diazatetracyclo[14.7.2.0^3,6.0^19,24]pentacosa [16,18,24]trien]-15′-one 13′,13′-dioxide or (1S,3′R,6′R,7′S,12′S)-5-chloro-12′-ethyl-7′-hydroxy-2,3-dihydro-15′H-spiro[indene-1,22′-[20]oxa[13]thia[1,14]diazatetracyclo[14.7.2.0^3,6.0^19,24]pentacosa [16,18,24]trien]-15′-one 13′,13′-dioxide]: the concentration for half-maximal inhibition (IC50) turned out to be 2.04 nM.

Consider `O=C1NS(=O)(=O)CCOCC[C@H](O)[C@@H]2CC[C@H]2CN2C[C@@]3(CCCc4cc(Cl)ccc43)COc3ccc1cc32` [Example 779, (3′R,6′R,7S,22S)-6′-chloro-7-hydroxy-3′,4′-dihydro-2′H,15H-spiro[10,20-dioxa-13-thia-1,14-diazatetracyclo[14.7.2.0^3,6.0^19,24]pentacosa-16,18,24-triene-22, 1′-naphthalen]-15-one-13, 13-dioxide or (3′R,6′R,7R,22S)-6′-chloro-7-hydroxy-3′,4′-dihydro-2′H,15H-spiro[10,20-dioxa-13-thia-1,14-diazatetracyclo[14.7.2.0^3,6.0^19,24]pentacosa-16,18,24-triene-22, 1′-naphthalen]-15-one-13, 13-dioxide], for which the IC50 was 5.55 nM.

Consider `O=C1NS(=O)(=O)CCCC/C=C/[C@@H]2CC[C@H]2CN2C[C@@]3(CCCc4cc(Cl)ccc43)COc3ccc1cc32` [Example 858, (1S,3′R,6′S, 7′E)-6-chloro-3,4-dihydro-2H,15′H-spiro[naphthalene-1,22′-[20]oxa[13]thia[1,14]diazatetracyclo[14.7.2.0^3,6.0^19,24]pentacosa [7,16,18,24]tetraen]-15′-one 13′,13′-dioxide], for which the IC50 amounted to 27.8 nM.

`O=C1NS(=O)(=O)CCCC2(O)CCOC(C2)C2CCC2CN2CC3(CCCc4cc(Cl)ccc43)COc3ccc1cc32` (single isomer, unassigned) [Example 910]: the IC50 was 5.8 nM.
